Laboratory results taken from US10813956B2, “Methods for making and using antimicrobial peptides” (REGENTS OF THE UNIVERSITY OF MINNESOTA, priority 2012, dated 2020).
Values after ≈ are worked out from the molar mass of the structure shown. “Also recorded” adds a separate entry of the source. Residues, ends and D or L forms follow the SMILES beside them.

What was measured:
L. lactis IL1403 = assay: MIC of synthetic AMPs, liquid growth inhibition microdilution assay; type: cell-based, Lactococcus lactis; settings: synthetic peptide; for L. lactis growth inhibition: all concentrations tested (up to 1 mg/ml)
Method: (§1) MICs of the synthetic AMPs were determined in triplicate by a liquid growth inhibition microdilution assays in flat-bottom sterile polypropylene 96-well plates (Maxisorp, Nunc, Roskilde, Denmark), in a final volume of 150 μl. The bacteria were diluted 2% in fresh media and grown to an OD600=0.5±0.05 (OD600=1≈10^9 cells/ml). The cells were diluted 50-fold to 10^7 cells/ml in fresh media. The AMP stocks were serially diluted (150 μl/well) in liquid growth media in a 96-well plate, covering a concentration range of 1,000 μg/ml-1 ng/ml. Briefly, 150 μl of the serially diluted AMPs were inoculated with 5 μl of the bacterial strains to achieve a final indicator concentration of 3×10^5 cells/ml. For each strain a row with no peptide was included as growth control, and for each test a row of medium-only wells was included as a sterility control. Plates were then incubated at 37° C. for 16-20 h without shaking, and growth inhibition was assessed measuring OD600 using a microplate reader (SpectraMax® Plus384; Molecular Devices, Sunnyvale, Calif., USA). MICs were identified as the lowest antimicrobial concentration where the OD600 […].

Salmonella = assay: Antimicrobial activity of supernatants from recombinant L. lactis (CFU/ml and OD600); type: cell-based
Method: (§2) The loss of cell viability was monitored to determine the antimicrobial activity of the supernatants from the recombinant L. lactis strains. Briefly, 0.3 ml of fresh medium, individually inoculated with the target strains, was added to tubes containing 0.7 ml of the supernatants, to reach a final concentration of 1×10^3 cells/ml. As a control, a supernatant sample from the L. lactis strain containing only the expression vector pMSP3545 (C-SN) was used. Tubes were incubated at 37° C. with agitation. Samples were taken at 30 min, 2 and 6 h, and the number of colony forming units per ml (CFU/ml) was determined by plating 25 μl on LB agar plates. The plates were incubated for 16 h at 37° C., and the number of viable cells was assessed by counting CFUs. Additionally, the OD600 was monitored up to 15 h post-inoculation to follow the influence of AMPs on culture growth.
(§3) Growth of pathogenic and non-pathogenic E. coli strains was assessed in medium containing these AMP-SNs while only pathogenic Salmonella strains were tested. In all cases, AMP-SNs diluted 7:3 with LB were inoculated with each indicator strain and growth was monitored spectrophotometrically at 600 nm for 15 hr.

S. infantis = assay: Antimicrobial activity of supernatants from recombinant L. lactis (culture titer); type: cell-based, Salmonella infantis; settings: FIG. 3a; by 2 h post-inoculation
Method: as §2, §3

S. typhimurium = assay: as above; type: cell-based, Salmonella typhimurium; settings: FIG. 3a; by 2 h post-inoculation
Method: as §2, §3

E. coli [1] = type: cell-based, Escherichia coli
Method: as §1

E. coli [2] = assay: Antimicrobial activity of supernatants from recombinant L. lactis (CFU/ml and OD600); type: cell-based, Escherichia coli; settings: 6 h post-inoculation; supernatant of recombinant L. lactis; pathogenic and non-pathogenic E. coli
Method: as §2, §3

| SMILES | L. lactis growth inhibition (L. lactis IL1403) | Salmonella growth inhibition at longer times (Salmonella; 10-15 h post-inoculation, versus C-SN) | S. infantis culture density reduction relative to C-SN (S. infantis) | S. typhimurium culture density reduction relative to C-SN (S. typhimurium) | MIC against indicator E. coli strains (E. coli [1]) | Concentration up to which L. lactis remained viable (L. lactis IL1403; highest concentration tested) | E. coli culture density/concentration reduction relative to C-SN (E. coli [2]) | Salmonella growth (rate) reduction relative to C-SN (Salmonella; 10 to 15 h post-inoculation) | S. infantis culture density/growth reduction relative to C-SN (fraction) (S. infantis) |
| --- | --- | --- | --- | --- | --- | --- | --- | --- | --- |
| CC(C)C[C@H](NC(=O)[C@H](Cc1ccc(O)cc1)NC(=O)[C@@H]1CCCN1C(=O)[C@H](CCCNC(=N)N)NC(=O)[C@@H]1CCCN1C(=O)[C@H](CCCCN)NC(=O)[C@H](CC(=O)O)NC(=O)[C@@H]1CCCN1C(=O)[C@@H](N)CCCNC(=N)N)C(=O)N1CCC[C@H]1C(=O)N[C@@H](CCCNC(=N)N)C(=O)N1CCC[C@H]1C(=O)N[C@@H](CCCNC(=N)N)C(=O)N1CCC[C@H]1C(=O)N1CCC[C@H]1C(=O)N[C@@H](CCCNC(=N)N)C(=O)N1CCC[C@H]1C(=O)N[C@H](C(=O)N[C@@H](CCCNC(=N)N)C(=O)O)C(C)C [A3APO, A3APO (single chain)] (H-RPDKPRPYLPRPRPPRPVR-OH; N-terminus and C-terminus assumed) | not inhibited; also recorded: not achieved | not observed | 20 fold | 4 fold | – | – | – | – | – |
| CC[C@H](C)[C@H](NC(=O)CNC(=O)[C@H](CCCCN)NC(=O)[C@@H](NC(=O)[C@H](CC(C)C)NC(=O)[C@H](CO)NC(=O)CNC(=O)[C@H](CC(C)C)NC(=O)CNC(=O)[C@H](C)NC(=O)[C@H](CCCCN)NC(=O)[C@H](Cc1ccccc1)NC(=O)[C@@H](NC(=O)[C@H](CC(=O)O)NC(=O)[C@H](CCCCN)NC(=O)[C@H](CC(C)C)NC(=O)CN)[C@@H](C)CC)C(C)C)C(=O)N[C@@H](C)C(=O)N[C@@H](C)C(=O)N[C@@H](Cc1c[nH]cn1)C(=O)N[C@H](C(=O)N[C@@H](C)C(=O)N[C@@H](CC(N)=O)C(=O)O)C(C)C [Alyteserin, Alyteserin-1a] (H-GLKDIFKAGLGSLVKGIAAHVAN-OH; N-terminus and C-terminus assumed) | not achieved | – | – | 10 fold | 500 µg/mL (≈ 219 µM) | > 1 mg/mL | 20 fold | 15% | about one-half |
